The record followed here is BindingDB's records for patent US11691969 (Ribon Therapeutics, 2023).

For the test, the target named is T1, Protein mono-ADP-ribosyltransferase TIPARP (Homo sapiens, UniProt Q7Z3E1).
T1 sequence (Q7Z3E1 whole entry): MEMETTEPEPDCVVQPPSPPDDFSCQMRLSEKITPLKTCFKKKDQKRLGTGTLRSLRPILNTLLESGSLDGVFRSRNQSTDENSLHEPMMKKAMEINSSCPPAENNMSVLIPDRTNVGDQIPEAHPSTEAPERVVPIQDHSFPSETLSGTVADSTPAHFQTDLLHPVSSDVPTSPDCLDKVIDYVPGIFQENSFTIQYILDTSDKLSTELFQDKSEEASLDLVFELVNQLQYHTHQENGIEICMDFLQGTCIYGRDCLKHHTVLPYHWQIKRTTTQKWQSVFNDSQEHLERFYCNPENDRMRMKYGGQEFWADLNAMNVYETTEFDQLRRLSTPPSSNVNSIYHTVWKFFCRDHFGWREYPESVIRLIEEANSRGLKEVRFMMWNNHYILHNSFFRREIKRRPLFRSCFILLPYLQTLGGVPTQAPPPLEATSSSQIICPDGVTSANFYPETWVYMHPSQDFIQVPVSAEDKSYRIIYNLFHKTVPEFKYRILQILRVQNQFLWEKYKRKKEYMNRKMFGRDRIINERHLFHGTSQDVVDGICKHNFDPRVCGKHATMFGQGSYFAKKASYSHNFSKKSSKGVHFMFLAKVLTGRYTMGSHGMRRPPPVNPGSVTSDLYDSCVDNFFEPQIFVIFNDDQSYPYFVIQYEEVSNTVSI
Briefly: Enzymatic Assay. As to the method:
Displacement of Probe A, a biotinylated probe binding to the TIPARP active site, was measured using a time-resolved fluorescence energy transfer (TR-FRET) assay. 20 nL of a dose response curve of each test compound was spotted in black 384-well polystyrene proxiplates (Perkin Elmer) using a Mosquito (TTP Labtech). Reactions were performed in a 8 μl volume by adding 6 μL of TIPARP and Probe A in assay buffer (20 mM HEPES pH=8, 100 mM NaCl, 0.1% bovine serum albumin, 2 mM DTT and 0.002% Tween20), incubating with test compound at 25° C. for 30 min, then adding 2 μL of ULight-anti 6×His and LANCE Eu-W1024 labeled streptavidin (Perkin Elmer). The final concentrations of TIPARP and Probe A were 6 nM and 2 nM, respectively. The final concentration of ULight-anti 6×His and LANCE Eu-W1024 labeled streptavidin were 4 nM and 0.25 nM, respectively. Reactions were incubated at 25° C. for an additional 30 min, then read on an Envision platereader equipped with a LANCE/DELFIA top mirror (Perkin Elmer) using excitation of 320 nm and emission of 615 nm and […] with a […]. The ratio of the 665/615 nm emission were calculated for each well to determine the amount of complex of TIPARP and Probe Ain each well. […]

Take `C[C@@H](CO[C@H]1CCN(C2CCN(c3ncc(C(F)(F)F)cn3)CC2)C1=O)Nc1cn[nH]c(=O)c1Br` [US11691969, Example 23]: the IC50 result was “in the range around 0.55 µM”.
